The results in this text go back to US11471469B2 (Lennham Pharmaceuticals, Inc., priority 2020, dated 2022).

In the data set the target is T1, Recombinant CYP19 (aromatase) (Homo sapiens, UniProt P11511).
T1 sequence (P11511 1-503): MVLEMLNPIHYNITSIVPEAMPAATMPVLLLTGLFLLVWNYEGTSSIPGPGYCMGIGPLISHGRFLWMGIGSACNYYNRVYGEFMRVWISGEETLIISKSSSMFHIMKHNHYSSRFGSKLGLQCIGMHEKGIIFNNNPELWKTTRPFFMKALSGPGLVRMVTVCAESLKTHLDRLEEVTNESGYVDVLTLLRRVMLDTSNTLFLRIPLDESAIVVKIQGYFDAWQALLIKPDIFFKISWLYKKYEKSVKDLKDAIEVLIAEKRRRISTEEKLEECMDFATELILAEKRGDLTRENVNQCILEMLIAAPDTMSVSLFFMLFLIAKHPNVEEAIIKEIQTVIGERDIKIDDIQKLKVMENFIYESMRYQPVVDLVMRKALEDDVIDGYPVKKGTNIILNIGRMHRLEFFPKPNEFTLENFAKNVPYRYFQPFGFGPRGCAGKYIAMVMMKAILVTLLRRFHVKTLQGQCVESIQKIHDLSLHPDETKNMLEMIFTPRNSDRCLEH
Nature of the data set: Metabolic stability in the presence of recombinant CYP19 (aromatase). On the procedure:
The incubation conditions used are described in Table 1.
The analytical method used is described in Table 2.

The mark [1] stands for this setting: recombinant human CYP19, compared with testosterone.

With `[2H]C([2H])([2H])[C@]12CCC(=O)C=C1CC[C@H]1[C@@H]3CC[C@H](O)[C@@]3(C)CC[C@@H]12` [Testosterone-19-d3, testosterone-19-d3], the “half-life (t1/2) in aromatase, times longer than that of non-isotopically enriched testosterone” value (recombinant human CYP19, 0.5 μM, 4 pmol/ml or 2 μM, 10 pmol/ml, NADPH 1 mM, 0-60 min at 37° C.) was 4-7 times. Moreover, under setting [1], the clearance by aromatase entry was “more resistant to clearance by aromatase” and the “metabolic stability in the presence of aromatase” value was “substantially higher stability than testosterone”.
